# Laboratory results taken from US20260374754A1, “N-((ISOQUINOLIN-6-YL)METHYL)-1H-PYRAZOLE-4-CARBOXAMIDE DERIVATIVES AS PLASMA KALLIKREIN INHIBITORS FOR THE TREATMENT OF HEREDITARY ANGIODEMA” (Takeda Pharmaceutical Company Limited, priority 2022, published 2026).
# Target: human activated kallikrein enzyme (Homo sapiens, UniProt P03952)
# Experiment: Inhibition of human activated plasma kallikrein, fluorogenic PFR-AMC substrate, 500 pM enzyme format
# Format: biochemical
# Conditions: 500 pM activated kallikrein; 300 μM PFR-AMC; 30 min preincubation; 10 min room temperature; pH 7.5; read-out: Primary Dose Response Assay: Average EC50
# Outline: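 Using fluorogenic PFR-AMC at 300 μM, cleavage by 500 pM human activated kallikrein ran 10 min at room temperature, read at 460 nm emission (380 nm excitation). Enzyme and compounds were first preincubated 30 min in 20 mM Tris pH 7.5, 150 mM NaCl, 1 mM EDTA, 0.1% PEG-400, 0.1% Triton X-100.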
# human activated kallikrein enzyme, sequence (P03952 391-638 limits assumed): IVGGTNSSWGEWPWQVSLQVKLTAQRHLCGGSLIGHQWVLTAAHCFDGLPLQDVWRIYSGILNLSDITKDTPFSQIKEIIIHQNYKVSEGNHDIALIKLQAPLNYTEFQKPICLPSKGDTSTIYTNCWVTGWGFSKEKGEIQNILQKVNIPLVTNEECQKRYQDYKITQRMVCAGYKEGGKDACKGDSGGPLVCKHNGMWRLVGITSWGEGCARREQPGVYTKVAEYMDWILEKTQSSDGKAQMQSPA
# human activated kallikrein enzyme, sequence (P03952 20-390 partner limits assumed): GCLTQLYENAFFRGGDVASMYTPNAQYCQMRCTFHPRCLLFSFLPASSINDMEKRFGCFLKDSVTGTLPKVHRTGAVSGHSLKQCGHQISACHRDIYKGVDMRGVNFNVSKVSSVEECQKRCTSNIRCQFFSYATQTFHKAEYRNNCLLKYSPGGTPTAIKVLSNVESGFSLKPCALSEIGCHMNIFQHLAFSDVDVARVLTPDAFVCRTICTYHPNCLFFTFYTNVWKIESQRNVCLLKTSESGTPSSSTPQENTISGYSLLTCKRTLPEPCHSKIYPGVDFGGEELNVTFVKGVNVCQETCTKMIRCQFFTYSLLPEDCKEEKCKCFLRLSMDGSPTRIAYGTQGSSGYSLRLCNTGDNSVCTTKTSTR
row,EC50 [µM],Compound
1,< 0.001,"CCOC(=O)c1nc(NCc2c(C)cc3c(N)nccc3c2C)cc(OCc2cn3cc(C4CC4)cnc3n2)n1 [Example 489, ethyl 4-(((1-amino-5,7-dimethylisoquinolin-6-yl)methyl)amino)-6-((6-cyclopropylimidazo[1,2-a]pyrimidin-2-yl)methoxy)pyrimidine-2-carboxylate]"
2,< 0.001,"Cc1cc2c(N)nccc2c(C)c1CNc1cc(OCc2cn3cc(C4CC4)ccc3n2)nc(C(=O)O)n1 [Example 487, 4-(((1-amino-5,7-dimethylisoquinolin-6-yl)methyl)amino)-6-((6-cyclopropylimidazo[1,2-a]pyridin-2-yl)methoxy)pyrimidine-2-carboxylic acid]"
3,0.01 to 0.1,"Cc1cc2c(N)nccc2c(C)c1CNc1cc(NCc2ccc(C3CC3)cc2)ncn1 [Example 339, N^4-((1-amino-5,7-dimethylisoquinolin-6-yl)methyl)-N^6-(4-cyclopropylbenzyl)pyrimidine-4,6-diamine]"
4,0.01 to 0.1,"Cc1cc2c(N)nccc2c(C)c1CNC(=O)c1cnn(Cc2nc3ccccc3o2)c1 [Example 85, N-((1-amino-5,7-dimethylisoquinolin-6-yl)methyl)-1-(benzo[d]oxazol-2-ylmethyl)-1H-pyrazole-4-carboxamide]"
5,< 0.001,"Cc1cc(Cn2cc(C(=O)NCc3c(C)cc4c(N)nccc4c3C)cn2)cc(C)c1CC(=O)N(C)C [Example 20, N-((1-amino-5,7-dimethylisoquinolin-6-yl)methyl)-1-(4-(2-(dimethylamino)-2-oxoethyl)-3,5-dimethylbenzyl)-1H-pyrazole-4-carboxamide]"
6,0.001 to 0.01,"Cc1cc2c(N)nccc2c(C)c1CNC(=O)c1cnn(Cc2ccc(CC(=O)N3CCCCC3)cc2)c1 [Example 223, N-((1-amino-5,7-dimethylisoquinolin-6-yl)methyl)-1-(4-(2-oxo-2-(piperidin-1-yl)ethyl)benzyl)-1H-pyrazole-4-carboxamide]"
7,< 0.001,"Cc1cc2c(N)nccc2c(C)c1CNC(=O)c1cnn(Cc2ccc(CC(=O)N3C[C@@H]4[C@H](CO)[C@@H]4C3)cc2)c1 [Example 209, N-((1-amino-5,7-dimethylisoquinolin-6-y1)methyl)-1-(4-(2-((1R,5S,6s)-6-(hydroxymethyl)-3-azabicyclo[3.1.0]hexan-3-y1)-2-oxoethyl)benzyl)-1H-pyrazole-4-carboxamide]"
8,< 0.001,"Cc1cc2c(N)nccc2c(C)c1CNC(=O)c1nnc(Cc2cn3cc(C4CC4)ccc3n2)o1 [Example 190, N-((1-amino-5,7-dimethylisoquinolin-6-yl)methyl)-5-((6-cyclopropylimidazo[1,2-a]pyridin-2-yl)methyl)-1,3,4-oxadiazole-2-carboxamide]"
9,0.001 to 0.01,"Cc1ccc2nc(C(C(=O)O)n3cc(C(=O)NCc4c(C)cc5c(N)nccc5c4C)cn3)cn2c1 (centres unmarked) [Example 129, 2-(4-(((1-amino-5,7-dimethylisoquinolin-6-yl)methyl)carbamoyl)-1H-pyrazol-1-yl)-2-(6-methylimidazo[1,2-a]pyridin-2-yl)acetic acid]"
10,0.001 to 0.01,"Cc1cc2c(N)nccc2c(C)c1CNc1cc(OCc2ccc(-n3ccccc3=O)cc2)cnn1 [Example 438, 1-(4-(((6-(((1-amino-5,7-dimethylisoquinolin-6-yl)methyl)amino)pyridazin-4-yl)oxy)methyl)phenyl)pyridin-2(1H)-one]"
11,0.001 to 0.01,"Cc1cc2c(N)nccc2c(C)c1CNC(=O)c1cnn(Cc2ccc3cnccc3c2)c1 [Example 74, N-((1-amino-5,7-dimethylisoquinolin-6-yl)methyl)-1-(isoquinolin-6-ylmethyl)-1H-pyrazole-4-carboxamide]"
12,0.001 to 0.01,"Cc1cc2c(N)nccc2c(C)c1CNc1cc(NCc2ccc(Cn3cccn3)cc2C(F)(F)F)ncn1 [Example 380, N^4-(4-((1H-pyrazol-1-yl)methyl)-2-(trifluoromethyl)benzyl)-N^6-((1-amino-5,7-dimethylisoquinolin-6-yl)methyl)pyrimidine-4,6-diamine]"
13,0.001 to 0.01,"Cc1cc2c(N)nccc2c(C)c1CNC(=O)c1cn(C(C)c2ccc3ncc(Cl)cc3c2)nn1 (centres unmarked) [Example 200, N-((1-amino-5,7-dimethylisoquinolin-6-yl)methyl)-1-(1-(3-chloroquinolin-6-yl)ethyl)-1H-1,2,3-triazole-4-carboxamide]"
14,0.001 to 0.01,"Cc1cc2c(N)nccc2c(C)c1CNc1ccnc(OCc2cn3cc(C4CC4)ccc3n2)c1 [Example 279, 6-(((2-((6-cyclopropylimidazo[1,2-a]pyridin-2-yl)methoxy)pyridin-4-yl)amino)methyl)-5,7-dimethylisoquinolin-1-amine]"
15,> 1,"Cc1cc2c(N)nccc2c(C)c1CNC(=O)c1cnn(Cc2ccccc2C(F)(F)F)c1 [Example 42, N-((1-amino-5,7-dimethylisoquinolin-6-yl)methyl)-1-(2-(trifluoromethyl)benzyl)-1H-pyrazole-4-carboxamide]"
16,< 0.001,"Cc1cc2c(N)nccc2c(C)c1CNC(=O)c1cnn(Cc2cn3cc(C4CC4)ccc3n2)c1 [Example 99, N-((1-amino-5,7-dimethylisoquinolin-6-yl)methyl)-1-((6-cyclopropylimidazo[1,2-a]pyridin-2-yl)methyl)-1H-pyrazole-4-carboxamide]"

row,EC50 [µM],Compound
1,0.001 to 0.01,"Cc1cc2c(N)nccc2c(C)c1CNC(=O)c1cnn(Cc2ccc(CCn3ccccc3=O)cc2)c1 [Example 49, N-((1-amino-5,7-dimethylisoquinolin-6-yl)methyl)-1-(4-(2-(2-oxopyridin-1(2H)-yl)ethyl)benzyl)-1H-pyrazole-4-carboxamide]"
2,< 0.001,"Cc1cc2c(N)nccc2c(C)c1CNc1cc(NC(C)c2ccc3ncc(Cl)cc3c2)ncn1 (centres unmarked) [Example 310, N^4-((1-amino-5,7-dimethylisoquinolin-6-yl)methyl)-N^6-(1-(3-chloroquinolin-6-yl)ethyl)pyrimidine-4,6-diamine]"
3,< 0.001,Cc1cc(CNc2cc(NCc3c(C)cc4c(N)nccc4c3C)ncn2)cc(C)c1CC(=O)N(C)C [Compound 360]
4,0.1 to 1,"Cc1cc2c(N)nccc2c(C)c1CNc1nccn2cc(Cc3ccc4ccccc4c3)nc12 [Example 525, 5,7-dimethyl-6-(((2-(naphthalen-2-ylmethyl)imidazo[1,2-a]pyrazin-8-yl)amino)methyl)isoquinolin-1-amine]"
5,< 0.001,"CCc1cccc2nc(Cn3cc(C(=O)NCc4c(C)cc5c(N)nccc5c4C)cn3)cn12 [Example 140, N-((1-amino-5,7-dimethylisoquinolin-6-yl)methyl)-1-((5-ethylimidazo[1,2-a]pyridin-2-yl)methyl)-1H-pyrazole-4-carboxamide]"
6,> 1,"Cc1cc2c(N)nccc2c(C)c1CNC(=O)c1cc(CN)n(Cc2ccccc2)n1 [Example 203, N-((1-amino-5,7-dimethylisoquinolin-6-y1)methyl)-5-(aminomethyl)-1-benzyl-1H-pyrazole-3-carboxamide]"
7,0.001 to 0.01,"CCOC(=O)Nc1nccc2c(C)c(CNC(=O)c3cnn(Cc4cn5cc(C)ccc5n4)c3)c(C)cc12 [Example 9, ethyl (5,7-dimethyl-6-((1-((6-methylimidazo[1,2-a]pyridin-2-yl)methyl)-1H-pyrazole-4-carboxamido)methyl)isoquinolin-1-yl)carbamate]"
8,0.001 to 0.01,"Cc1cc2c(N)nccc2c(C)c1CNc1cc(OCc2ccc(-n3ccnc3)cc2)cnn1 [Example 441, 6-(((5-((4-(1H-imidazol-1-yl)benzyl)oxy)pyridazin-3-yl)amino)methyl)-5,7-dimethylisoquinolin-1-amine]"
9,< 0.001,"Cc1cc2c(N)nccc2c(C)c1CNc1cc(OCc2ccc(CN3CCCCC3=O)cc2)cnn1 [Example 433, 1-(4-(((6-(((1-amino-5,7-dimethylisoquinolin-6-yl)methyl)amino)pyridazin-4-yl)oxy)methyl)benzyl)piperidin-2-one]"
10,0.1 to 1,"Cc1cc2c(N)nccc2c(C)c1CNc1cc(OCc2ccc(Cn3cccn3)nc2)cnn1 [Example 445, 6-(((5-((6-((1H-pyrazol-1-yl)methyl)pyridin-3-yl)methoxy)pyridazin-3-yl)amino)methyl)-5,7-dimethylisoquinolin-1-amine]"
11,> 1,"Cc1cc2c(N)nccc2c(C)c1CNc1cc2c(ccn2Cc2ccc3ncc(Cl)cc3c2)cn1 [Example 518, 6-(((1-((3-chloroquinolin-6-yl)methyl)-1H-pyrrolo[3,2-c]pyridin-6-yl)amino)methyl)-5,7-dimethylisoquinolin-1-amine]"
12,0.01 to 0.1,"Cc1cc2c(N)nccc2c(C)c1CNC(=O)c1cnn(Cc2ccc(CC(=O)N3C[C@@H]4[C@H](C3)[C@H]4C(=O)O)cc2)c1 [Example 213, (1R,5S,6r)-3-(2-(4-((4-(((1-amino-5,7-dimethylisoquinolin-6-yl)methyl)carbamoyl)-1H-pyrazol-1-yl)methyl)phenyl)acetyl)-3-azabicyclo[3.1.0]hexane-6-carboxylic acid]"
13,0.001 to 0.01,"Cc1cnc2cc(CNc3cc(NCc4c(C)cc5c(N)nccc5c4C)ncn3)ccc2c1 [Example 311, N^4-((1-amino-5,7-dimethylisoquinolin-6-yl)methyl)-N^6-((3-methylquinolin-7-yl)methyl)pyrimidine-4,6-diamine]"
14,0.001 to 0.01,"Cc1cc2c(N)nccc2c(C)c1CNC(=O)c1cnn(Cc2ccc(CC(=O)N3C(C)CCC3C)cc2)c1 (centres unmarked) [Example 218, N-((1-amino-5,7-dimethylisoquinolin-6-y1)methyl)-1-(4-(2-(2,5-dimethylpyrrolidin-1-yl)-2-oxoethyl)benzyl)-1H-pyrazole-4-carboxamide]"
15,0.001 to 0.01,"Cc1ccn2cc(CNc3cc(NCc4c(C)cc5c(N)nccc5c4C)ncn3)nc2c1 [Example 322, N^4-((1-amino-5,7-dimethylisoquinolin-6-yl)methyl)-N^6-((7-methylimidazo[1,2-a]pyridin-2-yl)methyl)pyrimidine-4,6-diamine]"
16,< 0.001,"Cc1cc2c(N)nccc2c(C)c1CNc1nncc(NCc2ccc(Cn3cccn3)cc2)n1 [Example 376, N^5-(4-((1H-pyrazol-1-yl)methyl)benzyl)-N^3-((1-amino-5,7-dimethylisoquinolin-6-yl)methyl)-1,2,4-triazine-3,5-diamine]"
